Assay results from ChEMBL document CHEMBL2074237, “Biological activity of persimmon (Diospyros kaki) peel extracts” (Phytother Res, 2003).

Molecular target: ATP-dependent translocase ABCB1 (Homo sapiens, UniProt P08183)
Assay: TP_TRANSPORTER: inhibition of Rhodamine 123 efflux (R123: 5.2 micro;M) in MDR1 transfected L-5178 cells
Format: functional, cell-based
Settings: mouse

Chain of ATP-dependent translocase ABCB1 (P08183 whole entry): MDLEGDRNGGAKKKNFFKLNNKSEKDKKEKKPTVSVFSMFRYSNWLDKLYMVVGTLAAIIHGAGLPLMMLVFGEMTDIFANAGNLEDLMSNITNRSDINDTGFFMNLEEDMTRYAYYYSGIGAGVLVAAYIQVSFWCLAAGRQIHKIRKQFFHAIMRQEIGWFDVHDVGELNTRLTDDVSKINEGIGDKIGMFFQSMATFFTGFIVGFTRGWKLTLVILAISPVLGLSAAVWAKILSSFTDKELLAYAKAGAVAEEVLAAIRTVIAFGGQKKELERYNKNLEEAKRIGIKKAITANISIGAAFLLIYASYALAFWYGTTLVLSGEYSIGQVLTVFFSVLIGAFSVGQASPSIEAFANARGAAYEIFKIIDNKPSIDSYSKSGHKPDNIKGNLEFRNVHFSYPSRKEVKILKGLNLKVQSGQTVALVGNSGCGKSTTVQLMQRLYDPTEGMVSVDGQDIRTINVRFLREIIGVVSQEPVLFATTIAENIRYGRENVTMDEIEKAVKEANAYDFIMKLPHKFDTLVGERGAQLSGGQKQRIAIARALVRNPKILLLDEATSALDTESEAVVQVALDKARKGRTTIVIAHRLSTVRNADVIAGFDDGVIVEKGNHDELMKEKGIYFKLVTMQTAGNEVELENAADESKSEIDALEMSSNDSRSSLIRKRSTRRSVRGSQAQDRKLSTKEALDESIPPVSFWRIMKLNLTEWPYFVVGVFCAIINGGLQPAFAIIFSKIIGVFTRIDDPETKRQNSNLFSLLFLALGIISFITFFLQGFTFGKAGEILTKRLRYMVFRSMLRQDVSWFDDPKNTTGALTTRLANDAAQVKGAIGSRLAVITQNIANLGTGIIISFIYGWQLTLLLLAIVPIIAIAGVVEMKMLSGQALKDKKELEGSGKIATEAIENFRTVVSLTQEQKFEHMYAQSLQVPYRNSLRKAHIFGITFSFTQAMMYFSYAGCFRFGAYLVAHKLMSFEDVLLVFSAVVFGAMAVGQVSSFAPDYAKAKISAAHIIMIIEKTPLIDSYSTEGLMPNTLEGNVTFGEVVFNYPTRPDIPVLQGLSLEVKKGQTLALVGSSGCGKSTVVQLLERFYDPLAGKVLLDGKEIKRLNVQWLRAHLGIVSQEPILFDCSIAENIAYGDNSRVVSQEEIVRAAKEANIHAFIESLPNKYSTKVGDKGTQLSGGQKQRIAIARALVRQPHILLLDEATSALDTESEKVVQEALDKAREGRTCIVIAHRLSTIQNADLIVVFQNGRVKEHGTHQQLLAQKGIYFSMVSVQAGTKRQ

In the case of PERSIMMON PEEL EXTRACTS, the Activity is reported as “inhibitor [+]”.
